System: hTERT cells
Experiment: cytotoxicity of chlorhexidine on viability/adhesion of hTERT cells (Calcein AM / Ethidium homodimer)
Assay type: cell-based, human
Details: 24 h
Method: A separate experiment was carried out to measure the cytotoxicity of different chlorhexidine concentrations on the viability/adhesion of hTERT cells. hTERT cells were cultured as described above onto Thermanox discs in four well plates, but the DMEM with 10% FCS was inoculated with 0.1%, 1% or 10% chlorhexidine. Two control discs were also included containing just DMEM with 10% FCS, one disc was in the same plate as the chlorhexidine samples and the other in a separate four well plate. Plates were incubated at 37° C. for 24 h, before the media was removed and 1 ml DMEM (no FCS) containing 1 μl/ml Calcein AM (reacts with live cells) and 1 μl/ml Ethidium homodimer (reacts with dead cells) was added. The plates were incubated at 37° C. in the dark for a further 30 minutes, then the Thermanox discs were imaged using a Zeiss Epifluorescence microscope. Live well spread cells were seen on the sample not exposed to chlorhexidine, while dead cells were observed on the surface cultured in the same plate as samples exposed to chlorhexidine.

In the case of `[H]/N=C(\N/C(=N/[H])NCCCCCCNC(=N)NC(=N)Nc1ccc(Cl)cc1)Nc1ccc(Cl)cc1` [chlorhexidine], the “hTERT cells on Thermanox disc after exposure” value (0.1% chlorhexidine in DMEM with 10% FCS) is reported as “No cells were seen” and the “hTERT cells on Thermanox disc after exposure” value (1% chlorhexidine in DMEM with 10% FCS) is reported as “No cells were seen”.
